Experimental data from patent US20060040870A1, “Enhancement of apoptosis by caspase-9 inhibitors” (priority 2004, published 2006).
The star is where a group is joined. Cbz = O=C(OCc1ccccc1)*; CH2F = FC*

Legend:
[1] = test system: caspase-9 deficient BLIN-4L; test: Apoptotic sensitivity of BLIN-4L made deficient in caspase-9 by siRNA, Annexin V; conditions: Annexin V+ events minus DMSO
leukemia/lymphoma cells = test: Pro-apoptotic activity of caspase inhibitor sequences (Table 2); format: cell-based; parameters: key: “−” is no activity; ++++ is maximum activity
Source text: Caspases are constitutively express in cells, and are usually in their pro-form. In response to an incident, such as irradiation or chemotherapy, the pro-form of the caspase is converted into the activated state. Certain compounds are known that can inhibit caspases. For example, the pan-caspase (PCi) VAD can block all caspases. […] For example, C2i inhibits caspase-2. This particular inhibitor is very dose dependent.

CD33+ myeloid cells = test: Annexin V staining of sorted cord blood-derived CD33+ myeloid cells removed from MS-5 stroma; format: cell-based, human; conditions: cultured 18 hours, DMSO control 27.9 ± 3.9, Time 0 <10
BLIN-3 cells [2] = test: Loss of mitochondrial transmembrane potential (TMRE) and YO-PRO permeability in BLIN-3; format: cell-based, human; conditions: BLIN-3 removed from adherent fibroblasts, 50 μM, compared to DMSO
Experimental: Numbers in the histograms indicate the percentage of PI^- cells that underwent a loss of Δψm. Numbers in the contour plots indicate the percentage of Annexin V^+/PI^- cells. […] Numbers in the contour plots indicate the percentage of YO^- PRO^+/PI^- cells. Numbers in the histograms indicate the percentage of PI^- cells that underwent a loss of Δψm. Flow cytometry. Quantitation of apoptotic events was conducted using a FACS Calibur (BD Immunocytometry Systems). All analyses were conducted on cells with lymphoid light scatter characteristics (i.e., low to medium forward scatter and low 90° side scatter). i. Mitochondrial transmembrane potential (Δψm). The cationic lipophilic fluorescent dye tetramethylrhodamine, ethyl ester, perchlorate (TMRE) was purchased from Molecular Probes, Inc. (Eugene, Oreg.). TMRE has a high degree of membrane permeability and accumulates into mitochondria in accord with the Nernstian equation (Farkas Biophys J. 1989;56:1053-1069). Cells were washed once and re-suspended to 0.5-1.0×10^6/ml in X-VIVO 10. TMRE was added to a final concentration of 50 nM and the cells were incubated in the dark at 37° C. for 15 minutes. […] ii. YO-[…]. The green fluorescent DNA intercalant dye YO-PRO-1 (Idziorek J Immunol Methods. 1995;185:249-258) was purchased from Molecular Probes as the Vybrant Apoptosis Assay Kit #4. […]

BLIN cell lines = test: Enhancement of apoptosis in BLIN cell lines (flow cytometry); format: cell-based, human; conditions: BLIN cell lines
Experimental: (§1) Flow cytometry. Quantitation of apoptotic events was conducted using a FACS Calibur (BD Immunocytometry Systems). All analyses were conducted on cells with lymphoid light scatter characteristics (i.e., low to medium forward scatter and low 90° side scatter).
i. Mitochondrial transmembrane potential (Δψm). The cationic lipophilic fluorescent dye tetramethylrhodamine, ethyl ester, perchlorate (TMRE) was purchased from Molecular Probes, Inc. (Eugene, Oreg.). TMRE has a high degree of membrane permeability and accumulates into mitochondria in accord with the Nernstian equation (Farkas Biophys J. 1989;56:1053-1069). Cells were washed once and re-suspended to 0.5-1.0×10^6/ml in X-VIVO 10. TMRE was added to a final concentration of 50 nM and the cells were incubated in the dark at 37° C. for 15 minutes. Cells were then washed 2× in PBS, resuspended in PBS containing 2 μg/ml of propidium iodide (PI), and immediately analyzed. The protonophore […] (50 μM, CCCP, Sigma) was used as a positive control to effect loss of Δψm in 100% of cells.
ii. YO-PRO-1. The green fluorescent DNA intercalant dye YO-PRO-1 (Idziorek J Immunol Methods. 1995;185:249-258) was purchased from Molecular Probes as the Vybrant Apoptosis Assay Kit #4. Dual staining with YO-PRO and PI allows for the detection of early apoptotic cells (YO-PRO+/PI−) that have undergone initial changes in permeability to small molecules. Cells were stained according to the manufacturers recommendations.
(§2) iii. Annexin V. FITC-labeled Annexin V (BD Pharmingen, San Diego, Calif.) was used to detect external phosphatidylserine residues appearing on the external surface of early apoptotic cells (Koopman Blood. 1994;84:1415-1420). Cells were stained according to the manufacturers recommendations.
(§3) General experimental strategy. BLIN cell lines were removed from fibroblast monolayers, washed once and resuspended to 7.5×10^5/ml in X-VIVO 10. Two hundred μL of resuspended cells were added to 96-well flat-bottom microtiter plates (ISC Bioexpress, Kaysville, Vt.), followed by 0.5-1.0 μL of caspase inhibitors in DMSO. An identical volume of DMSO alone was added to separate wells as a vehicle control. This final DMSO concentration of 0.25-0.5% vol/vol had no adverse affect on any of the BLIN cell lines. At the indicated times the entire content of individual wells was harvested and stained in the fluorescent protocols described above.

CD19+ B-cell precursors = test: Annexin V staining of sorted cord blood-derived CD19+ B-cell precursors removed from MS-5 stroma; format: cell-based, human; conditions: cultured 18 hours, DMSO control 46.5 ± 1.4, Time 0 1.5
Experimental: Normal B-lineage cells. CD19+ B-lineage cells were derived from CD34+ human cord blood stem cells plated on the murine stromal cell line MS-5 (Itoh Exp Hematol. 1989;17:145-153). MS-5 stromal cells were kindly provided by Dr. Paul Kincade (University of Oklahoma Medical Research Foundation), following permission from Professor K. John Mori (Niigata University, Japan). FACS-purified CD34+/CD38+/lineage—cord blood hematopoietic stem cells were plated onto confluent, non-irradiated MS-5 stromal cells in 96-well flat-bottom plates (200 cells/well) containing Minimal Essential Medium supplemented with 10% FBS. Stem cell factor and G-CSF were added at 10 ng/ml (twice weekly) to enhance the emergence of CD19+ B-lineage cells (Nishihara Eur J Immunol. 1998;28:855-864; Ohkawara Leukemia. 1998;12:764-771). […] Wells were then pooled, stained with PE-conjugated anti-CD 19 + propidium iodide (PI), and sorted on a FACSVantage (BD Immunocytometry Systems, San Jose, Calif.). Cord blood CD34+/CD38+/lineage—cells were provided by Valerie McCullar and Dr. Jeff Miller of the University of Minnesota Cancer Center in accordance with the University of Minnesota Institutional Review Board on Human Subjects.
Flow cytometry. Quantitation of apoptotic events was conducted using a FACS Calibur (BD Immunocytometry Systems). […]

[3] = test system: PARP (caspase-3/caspase-7 substrate); test: Western blotting of PARP cleavage in BLIN-3 and BLIN-4L; format: cell-based, human; conditions: overnight incubation of BLIN-3 and BLIN-4L cells, 50 μM
Experimental: Western blotting. This method was conducted essentially as previously described.^20 The antibodies used were: rabbit anti-caspase-2 (catalog # sc-625, Santa Cruz Biotechnology Inc., Santa Cruz, Calif.), rabbit anti-caspase-3 (catalog # 9661, Upstate Cell Signaling Solutions, Waltham, Mass.), rabbit anti-caspase-6 (catalog # 9761, Upstate), rabbit anti-caspase-9 (catalog # 9502, Upstate), mouse anti-PARP (catalog # 556494, Pharmingen), and rabbit anti-Bid (catalog # AF846, R&D Systems). The antibodies to caspase-2 and caspase-9 were generated to the procaspase isoforms, whereas the antibodies to caspase-3 and caspase-6 were generated to cleavage products.
As expected, inclusion of 50 μM PCi had no effect. The degree of PARP cleavage in the presence of C9i (greater in BLIN-3 than BLIN-4L) correlated with the percentage of Annexin V+ cells (FIG. 3).

BLIN-3 cells [4] = test: Apoptosis by Annexin V staining and flow cytometry, BLIN-3; format: cell-based, human; conditions: BLIN-3 removed from adherent fibroblasts, 50 μM
Experimental: as §1, §2, §3
The inventors carried out experiments to test the influence of specific amino acid substitutions on the proapoptotic activity Z-LEHD-fmk. Cells were cultured for 24 hours with various μM concentrations of Z-LEDH-fmk or single amino acid substitution of the parent peptide. All values in the following Table 3 represent the percentage of total Annexin V+ cells (PI+ and PI−) minus the percentage present in culture with DMSO alone (BLIN-2=3%; BLIN-3+7%; BLIN4L=5%).

COc1cc([C@@H]2c3cc4c(cc3[C@@H](O[C@@H]3O[C@@H]5CO[C@@H](C)O[C@H]5[C@H](O)[C@H]3O)[C@H]3COC(=O)[C@H]23)OCO4)cc(OC)c1O [etoposide]
apoptotic response of caspase-9 deficient BLIN-4L compared with control siRNA treated cells [1]: no difference

CN[C@@H]1C[C@H]2O[C@@](C)([C@@H]1OC)n1c3ccccc3c3c4c(c5c6ccccc6n2c5c31)C(=O)NC4 [staurosporine]
apoptotic response of caspase-9 deficient BLIN-4L compared with control siRNA treated cells [1]: significantly more sensitive

Cbz-VDVAD-CH2F [C2i, reference compound]
Pro-apoptotic Activity (after 24 hours) (leukemia/lymphoma cells): −

Cbz-VEID-CH2F [C6i, reference compound]
Pro-apoptotic Activity (after 24 hours) (leukemia/lymphoma cells): −

LEAD [C9i/H > A]
Pro-apoptotic Activity (after 24 hours) (leukemia/lymphoma cells): −

LEED (printed: Leu-Glu-Glu-Asp) [C9i/H > E, variant of Z-LEHD-fmk, Leu-Glu-Glu-Asp]
Pro-apoptotic Activity (after 24 hours) (leukemia/lymphoma cells): −

LEHD [C91/ΔFMK]
Pro-apoptotic Activity (after 24 hours) (leukemia/lymphoma cells): −

WEHD (printed: Trp-Glu-His-Asp) [C9i/L > W, variant of Z-LEHD-fmk, Trp-Glu-His-Asp]
Pro-apoptotic Activity (after 24 hours) (leukemia/lymphoma cells): ++++

Z-DEVD-fmk [C3i, reference compound]
Pro-apoptotic Activity (after 24 hours) (leukemia/lymphoma cells): −

Z-VAD-fmk [PCi, reference compound]
percentage of total Annexin V+ cells (PI+ and PI−), mean ± SD (CD33+ myeloid cells): 18.0 ± 3.9 % | loss of Δψm (TMRE) (BLIN-3 cells [2]): did not prevent loss of Δψm | enhancement of apoptosis (BLIN cell lines): did not enhance apoptosis | percentage of total Annexin V+ cells (PI+ and PI−), mean ± SD (CD19+ B-cell precursors): 39.5 ± 1.8 % | cleavage of the caspase-3/caspase-7 substrate PARP [3]: had no effect | Pro-apoptotic Activity (after 24 hours) (leukemia/lymphoma cells): − | appearance of Annexin V+ cells (BLIN-3 cells [4]): completely blocked
